# According to patent publication US20230381173A1, “METHODS AND PHARMACEUTICAL COMPOSITION FOR TREATING DISEASES” (TONGLI BIOMEDICAL CO. LTD., priority 2021, published 2023):
# Legend:
# Neobenedenia melleni = experiment: Antiparasitic activity of medicated feed in infected yellow croaker; assay type: in vivo, large yellow croaker (Larimichthys crocea); details: for Infectivity: Day 3
# Description: The purpose of this experiment was to evaluate palatability and efficacy of (R)-praziquantel Form B (R-PZQ) against Monogenean trematode infection (Neobenedenia melleni) in large yellow croaker (Larimichthys crocea). Praziquantel (PZQ) was used as a positive control.
# All experimental yellow croakers (about 50-75 g BW/fish) were infected with Neobenedenia melleni, and the average infection intensity was 100-120 parasites/fish.
# Fish were fed 2 times a day (morning and afternoon) at up to 4% BW per day. The medicated granular feed was prepared as descripted under section “LIQUID COMPOSITIONS AND SOLID FORMULATIONS CONTAINING (R)-PRAZIQUANTEL FORM B FOR AQUACULTURE AND FISH”. Briefly, the powders of (R)-praziquantel Form B ([…]) or praziquantel (PZQ) were mixed with 4% (v/v) squid oil. The resulting squid oil was subsequently top-dressed onto commercial feed granules. Control feed was prepared by top-dressing with 4% squid oil onto the feed granules without containing the compounds.
# During treatment, amount and time to consume the medicated (or control) feed by the fishes in each group were observed and scored for palatability as poor (+) to excellent (+++++). Two days after dosing (Day 3), each fish was soaked in water individually and the number of parasites was recorded separately.
# Dactylogyrus vastator = experiment: Bath treatment of Dactylogyrus infected goldfish; assay type: in vivo, goldfish (Carassius auratus); details: bath 1.5 mg/L, 48 hours
# Method: (R)-praziquantel Form B was tested for use in treating fish parasites. Specifically, the effect of bath treatment of monogenean Dactylogyrus infected goldfish (Carassius auratus) was investigated. […] Two days after treatment, the number of attached parasites in whole gills of each fish was counted. Reduction rate=(average survival of worms in the blank control group−average survival of worms in the administration group)/average survival of worms in the blank control group×100%.
# [1] = Accelerated solid state stability of anhydrate (Form B) and hemihydrate (R)-praziquantel, open and closed condition; assay type: physicochemical
# Method: The Accelerated Solid State Stability of the Anhydrate (Form B) and Hemihydrate (R)-Praziquantel in an Open and Closed Condition […] The accelerated solid-state stability of the anhydrate and hemihydrate (R)-praziquantel was determined by storing approximately 1.0 g of the material in a glass dish at a) the anhydrate at 45° C./75% (RH), closed, for 3 months. and b) 45° C./75% Relative Humidity (RH), open exposure condition, for 3 months. The material was assayed by KF, TGA and HPLC for final content and degradation products.
# [2] = Physicochemical characterization of Form B (hygroscopicity)
# [3] = Long-term stability of (R)-praziquantel Form B API; assay type: physicochemical; details: for Appearance / Assay(Anhydrous basis) / Chiral Purity / Purity / Related Substances, largest single impurity (RRT = 0.60) / Related Substances, total impurities / XRPD Characterization / Water Content: 25° C., 60% relative humidity; for Water Content: Karl Fischer
# Method: Accurately weigh about 0.1-0.5 g of sample of Form B and transfer it to KF titrator container (aldehyde ketone Volumetric method), measure the samples according to USP<921>. The active pharmaceutical ingredient (API) of Form B was stored for 18 months under different storage conditions: 25° C. and 60% relative humidity, 30° C. and 65% relative humidity, and 40° C. and 75% relative humidity, in a sealed and open condition. […] In some embodiments, under various storage conditions the anhydrous API provided herein can be stable and water content controlled under 0.5% and monitored by KF for at least, or at least about, 3 months, 6 months, 9 months, 12 months, 18 months, 24 months and 36 months. For example, under storage conditions of 25° C. and 60% relative humidity, the tablets and API provided herein can be stable for at least, or at least about, 3 months, 6 months, 9 months, 12 months and 18 months.
# [4] = highest concentration of 10 mg/L
# Method: Goldfish were acclimatized to 22° C. water (pH 7˜7.5, dissolved oxygen>5 mL/L) and were challenged with Dactylogyrus vastator. When infection rate and infection intensity reached 100% and over 10 parasite/whole gills of each fish within about 10 days, the fish were then treated with various concentrations of the (R)-praziquantel Form B or praziquantel for 48 hours by bath. Infected fish […] were used as a control group. 20 infected fish were placed per concentration for each treatment.
# [5] = rabbit, in vivo; cited from earlier work
# [6] = at the same dose level; cited from earlier work
# isolated rat atria = details: cited from earlier work
# [7] = cited from earlier work
# [8] = medicated feed 75 mg/kg × 2 days
# [9] = Closed condition, 45° C./75% RH, 3 months
# [10] = Open, 45° C., RH75%, T3 (3 months)
# [11] = Opened condition, 45° C./75% RH, 3 months
# [12] = Sealed, 45° C., RH75%, T3 (3 months)
# [13] = medicated feed 37 mg/kg × 2 days
smiles,measurement,setting,value
"O=C(C1CCCCC1)N1CC(=O)N2CCc3ccccc3C2C1 (racemic) [Praziquantel, reference compound]",Mortality,Neobenedenia melleni; [8],3%
same,Infectivity,Neobenedenia melleni; [8],54%
same,Infection rate,Dactylogyrus vastator,100%
same,Worm reduction,Dactylogyrus vastator,45%
"O=C(C1CCCCC1)N1CC(=O)N2CCc3ccccc3[C@@H]2C1 [(R)-praziquantel Form B, (R)-2-(cyclohexanecarbonyl)-2,3,6,7-tetrahydro-1H-pyrazino[2,1-a] isoquinolin-4(11bH)-one]",Degradation (HPLC),[1]; [9],no significant degradation observed
same,Water uptake (KF),[1]; [9],≤ 0.3%
same,Water content (KF),"[1]; Open, 45° C., RH75%, T0, listed as Anhydrate",1.30%
same,Water content (KF),"[1]; Open, 45° C., RH75%, T0, listed as anhydrate",1.3%
same,"Impurities by HPLC, RRT 0.6",[1]; [10],RRT 0.6: 0.04%
same,Water content (KF),"[1]; Open, 45° C., RH75%, T3 (3 months), listed as Anhydrate",2.50%
same,Water content (KF),"[1]; Open, 45° C., RH75%, T3 (3 months), listed as anhydrate",about 2.5%
same,Degradation (HPLC),[1]; [11],no significant degradation observed
same,Impurity peaks found (HPLC),[1]; [11],none of impurity peak found
same,Water content (KF),"[1]; Sealed, 45° C., RH75%, T0",0.24%
same,"Impurities by HPLC, RRT 0.6",[1]; [12],RRT 0.6: 0.04%
same,Water content (KF),[1]; [12],0.32%
same,Hygroscopicity,[2],slightly hygroscopic
same,Storage stability of API,"[3]; 18 months, 25° C./60% RH, 30° C./65% RH, 40° C./75% RH, sealed and open",good stability
same,Appearance,[3]; 18 M,White solid
same,Assay(Anhydrous basis),[3]; 18 M,101.00%
same,Chiral Purity,[3]; 18 M,100.00%
same,Purity,[3]; 18 M,99.90%
same,"Related Substances, largest single impurity (RRT = 0.60)",[3]; 18 M,RRT = 0.60: 0.03%
same,"Related Substances, total impurities",[3]; 18 M,0.11%
same,XRPD Characterization,[3]; 18 M,Conforms
same,Appearance,[3]; Initial (0 M),White solid
same,Assay(Anhydrous basis),[3]; Initial (0 M),99.80%
same,Chiral Purity,[3]; Initial (0 M),100.00%
same,Purity,[3]; Initial (0 M),99.90%
same,"Related Substances, largest single impurity (RRT = 0.60)",[3]; Initial (0 M),RRT = 0.60: 0.04%
same,"Related Substances, total impurities",[3]; Initial (0 M),0.10%
same,XRPD Characterization,[3]; Initial (0 M),Conforms
same,Water Content,[3]; 18 M,0.27%
same,Water Content,[3]; Initial (0 M),0.50%
same,Toxic effect in the treated fish,[4],no toxic effect
same,Mortality,Neobenedenia melleni; [13],0%
same,Infectivity,Neobenedenia melleni; [13],35%
same,Mortality,Neobenedenia melleni; [8],0%
same,Infectivity,Neobenedenia melleni; [8],6%
same,Antiparasitic efficacy,Neobenedenia melleni; oral treatment,dose dependent and superior to PZQ
same,Infection rate,Dactylogyrus vastator,100%
same,Worm reduction,Dactylogyrus vastator,98%
O=C(C1CCCCC1)N1CC(=O)N2CCc3ccccc3[C@@H]2C1 [(R)-praziquantel],Cardiac toxicity,[5],lower cardiac toxicity than (S)-praziquantel
same,Anthelmintic efficacy,[6],better than that of praziquantel
same,Cardiac toxicity,isolated rat atria,lower cardiac toxicity than (S)-praziquantel
same,Observed side effects,"[7]; after oral administration (drowsiness, gastric nausea or photosensitivity rash)",relatively mild
same,Serious adverse reactions,[7]; after oral administration,No serious adverse reactions
"O=C(C1CCCCC1)N1CC(=O)N2CCc3ccccc3[C@H]2C1 [(S)-praziquantel, reference compound]",Anthelmintic efficacy,[6],almost no activity
"O.O=C(C1CCCCC1)N1CC(=O)N2CCc3ccccc3[C@@H]2C1.O=C(C1CCCCC1)N1CC(=O)N2CCc3ccccc3[C@@H]2C1 [Hemihydrate, reference compound]",Water content (KF),"[1]; Open, 45° C., RH75%, T0",2.80%
same,"Impurities by HPLC, RRT 0.6",[1]; [10],"RRT0.6: 0.17%,"
same,"Impurities by HPLC, RRT 0.9",[1]; [10],RRT0.9: 0.13%
same,Water content (KF),[1]; [10],2.50%
same,Impurity peaks found (HPLC),[1]; [11],two
same,Percent total impurities,[1]; [11],exceed 0.3%
